Measurements from ChEMBL document CHEMBL1136385, “Synthesis and pharmacological activity of fluorescent histamine H2 receptor antagonists related to potentidine” (Bioorg Med Chem Lett, 2003).

Target: Histamine H2 receptor (Cavia porcellus, UniProt P47747)
Assay: Histamine H2 receptor antagonistic activity on the isolated spontaneously beating guinea pig right atrium
Type: functional, tissue-based, Cardiac atrium
Conditions: read-out: pA2 (converted)

Histamine H2 receptor, sequence (P47747 whole entry): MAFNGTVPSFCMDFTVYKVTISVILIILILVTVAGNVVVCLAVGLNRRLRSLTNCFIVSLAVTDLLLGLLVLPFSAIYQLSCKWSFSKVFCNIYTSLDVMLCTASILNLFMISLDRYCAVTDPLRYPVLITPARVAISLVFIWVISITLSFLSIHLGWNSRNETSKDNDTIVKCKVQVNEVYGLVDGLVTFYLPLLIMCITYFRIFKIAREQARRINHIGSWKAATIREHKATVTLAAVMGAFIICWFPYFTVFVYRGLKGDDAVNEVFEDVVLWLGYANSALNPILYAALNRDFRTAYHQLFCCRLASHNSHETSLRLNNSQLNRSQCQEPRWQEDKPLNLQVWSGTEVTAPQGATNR

| SMILES | Kb [nM] |
| --- | --- |
| CN/C(=C/[N+](=O)[O-])NCCSCc1ccc(CN(C)C)o1 [RANITIDINE] | 170 |
| N#CN/C(=N\CCCCNC(=O)c1ccc(C2c3ccc(O)cc3OC3=CC(=O)C=CC32)c(C(=O)O)c1)NCCCOc1cccc(CN2CCCCC2)c1 (stereo not given) | 8910 |
| N#CN/C(=N\CCNC(=O)c1ccc(C(=O)O)c(C2c3ccc(O)cc3OC3=CC(=O)C=CC32)c1)NCCCOc1cccc(CN2CCCCC2)c1 (stereo not given) | 44700 |
| N#CN/C(=N\CCCCCCNc1ccc([N+](=O)[O-])c2nonc12)NCCCOc1cccc(CN2CCCCC2)c1 | 32.4 |
| N#CN/C(=N\CCNC(=O)CCCCCNc1ccc([N+](=O)[O-])c2nonc12)NCCCOc1cccc(CN2CCCCC2)c1 | 25.7 |
| N#CN/C(=N\CCNC(=O)c1c2ccccc2nc2ccccc12)NCCCOc1cccc(CN2CCCCC2)c1 | 182 |
| N#CN=C(NCCCCCCCCNc1ccc([N+](=O)[O-])c2n[o+][n-]c12)NCCCOc1cccc(CN2CCCCC2)c1 | 11 |
| N#CN/C(=N\CCCNc1ccc([N+](=O)[O-])c2nonc12)NCCCOc1cccc(CN2CCCCC2)c1 | 37.2 |
| N#CN/C(=N\CCN)NCCCOc1cccc(CN2CCCCC2)c1 | 1100 |
| CC(=O)OCC(=O)NCCCOc1cccc(CN2CCCCC2)c1 [ROXATIDINE ACETATE] | 38.9 |
| N#CN/C(=N\CCNC(=O)c1ccc(C2c3ccc(O)cc3OC3=CC(=O)C=CC32)c(C(=O)O)c1)NCCCOc1cccc(CN2CCCCC2)c1 (stereo not given) | 66100 |
| N#CN/C(=N\CCCCNC(=O)c1ccc(C(=O)O)c(C2c3ccc(O)cc3OC3=CC(=O)C=CC32)c1)NCCCOc1cccc(CN2CCCCC2)c1 (stereo not given) | 10000 |
| NC(N)=Nc1nc(CSCCC(N)=NS(N)(=O)=O)cs1 [FAMOTIDINE] | 18.2 |
| CN(C)c1cccc2c(S(=O)(=O)NCC/N=C(\NC#N)NCCCOc3cccc(CN4CCCCC4)c3)cccc12 | 1950 |
| CC(=O)c1ccc2n(c1=O)[C@H](COC(=O)CCC(=O)NCCCOc1cccc(CN3CCCCC3)c1)Cc1c-2[nH]c2ccccc12 | 1820 |
